ChEMBL document CHEMBL1129110, “O-alkylcarboxylate oxime and N-hydroxyurea analogs of substituted indole leukotriene biosynthesis inhibitors” (Bioorg Med Chem Lett, 1996)
Activity calls are given as the source filed them. The calls are words filed in the database; no cut-off is given here.

Assays:
5-lipoxygenase/FLAP [1] = target: T1, 5-lipoxygenase/FLAP (Homo sapiens, UniProt P09917+P20292); experiment: Inhibition of calcium ionophore (A23187) stimulated LTB4 formation in human neutrophils; format: functional
T1 sequence (P09917 whole entry): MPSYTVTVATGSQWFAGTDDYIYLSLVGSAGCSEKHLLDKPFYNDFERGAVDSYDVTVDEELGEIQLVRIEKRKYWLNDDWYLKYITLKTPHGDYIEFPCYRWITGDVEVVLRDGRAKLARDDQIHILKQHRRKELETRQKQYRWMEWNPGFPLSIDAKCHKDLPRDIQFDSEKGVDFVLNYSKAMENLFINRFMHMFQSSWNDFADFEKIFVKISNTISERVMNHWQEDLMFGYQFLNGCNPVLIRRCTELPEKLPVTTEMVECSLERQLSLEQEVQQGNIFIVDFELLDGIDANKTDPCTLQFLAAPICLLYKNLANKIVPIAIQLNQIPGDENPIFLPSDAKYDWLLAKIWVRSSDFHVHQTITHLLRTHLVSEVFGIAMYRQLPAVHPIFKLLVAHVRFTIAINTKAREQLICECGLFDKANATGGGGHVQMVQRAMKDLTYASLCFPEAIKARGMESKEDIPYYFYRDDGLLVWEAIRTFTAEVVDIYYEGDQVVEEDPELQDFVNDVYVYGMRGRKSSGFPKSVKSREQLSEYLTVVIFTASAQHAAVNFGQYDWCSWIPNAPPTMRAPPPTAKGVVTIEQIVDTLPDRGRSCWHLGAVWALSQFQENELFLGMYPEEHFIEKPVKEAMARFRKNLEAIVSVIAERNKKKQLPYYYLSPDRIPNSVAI
T1 sequence (P20292 whole entry): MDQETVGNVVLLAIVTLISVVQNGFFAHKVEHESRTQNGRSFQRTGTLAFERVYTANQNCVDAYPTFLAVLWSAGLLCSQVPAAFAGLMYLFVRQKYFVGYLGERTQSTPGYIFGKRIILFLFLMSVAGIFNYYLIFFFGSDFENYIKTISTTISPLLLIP

Rattus norvegicus [2] = experiment: Compound was tested in vivo against rat anaphylaxis in the peritoneal cavity at concentration of 100 umol/kg; format: functional
5-lipoxygenase/FLAP [3] = target: T1, 5-lipoxygenase/FLAP; experiment: (§1) Human whole blood was stimulated with calcium ionophore (A23187) and LTB 4 measured by enzyme immunoassay; format: functional, tissue-based
[4] = target: T2, Polyunsaturated fatty acid 5-lipoxygenase (Rattus norvegicus, UniProt P12527); experiment: Compound was tested for inhibition of 5-lipoxygenase activity in a broken cell supernatant rat basophilic leukemia cells at concentration of 32 uM; Not active
T2 sequence (P12527 whole entry): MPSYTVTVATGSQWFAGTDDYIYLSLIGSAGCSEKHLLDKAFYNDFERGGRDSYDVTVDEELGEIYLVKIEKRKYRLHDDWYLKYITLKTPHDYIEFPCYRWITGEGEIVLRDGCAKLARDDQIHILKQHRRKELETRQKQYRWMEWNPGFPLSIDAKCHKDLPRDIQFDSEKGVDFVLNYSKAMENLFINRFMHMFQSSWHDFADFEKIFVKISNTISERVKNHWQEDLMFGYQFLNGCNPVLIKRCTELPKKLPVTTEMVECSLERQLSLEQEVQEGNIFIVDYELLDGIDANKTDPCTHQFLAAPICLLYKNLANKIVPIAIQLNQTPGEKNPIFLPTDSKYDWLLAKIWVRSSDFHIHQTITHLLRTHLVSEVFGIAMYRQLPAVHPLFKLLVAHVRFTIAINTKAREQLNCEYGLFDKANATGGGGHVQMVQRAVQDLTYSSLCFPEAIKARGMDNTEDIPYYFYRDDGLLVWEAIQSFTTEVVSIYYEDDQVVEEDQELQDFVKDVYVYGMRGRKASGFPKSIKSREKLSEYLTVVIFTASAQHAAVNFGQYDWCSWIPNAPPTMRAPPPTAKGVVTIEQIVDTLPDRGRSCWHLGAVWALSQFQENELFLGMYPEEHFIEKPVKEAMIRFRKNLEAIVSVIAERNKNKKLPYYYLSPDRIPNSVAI

Rattus norvegicus [5] = experiment: Compound was tested in vivo against rat anaphylaxis in the peritoneal cavity; format: functional
[6] = target: T2, Polyunsaturated fatty acid 5-lipoxygenase; experiment: Compound was tested for inhibition of 5-lipoxygenase activity in a broken cell supernatant rat basophilic leukemia cells
Rattus norvegicus [7] = experiment: Compound was tested in vivo against rat anaphylaxis in the peritoneal cavity; Not active; format: functional, organism-based
[8] = target: T2, Polyunsaturated fatty acid 5-lipoxygenase; experiment: Compound was tested for inhibition of 5-lipoxygenase activity in a broken cell supernatant rat basophilic leukemia cells at concentration of 50 uM; Not active
Homo sapiens [9] = species: Homo sapiens; experiment: Compound was tested for inhibition of calcium ionophore (A23187) stimulated LTB4 formation in human neutrophils at 100 nM; format: functional
Rattus norvegicus [10] = experiment: Compound was tested in vivo against rat anaphylaxis in the peritoneal cavity at concentration of 100 umol/kg; Not active; format: functional, organism-based
Rattus norvegicus [11] = experiment: Compound was tested in vivo against rat anaphylaxis in the peritoneal cavity at 60 umol/kg; format: functional
Homo sapiens [12] = species: Homo sapiens; experiment: as §1; format: functional
Rattus norvegicus [13] = experiment: Compound was tested in vivo against rat anaphylaxis in the peritoneal cavity at concentration of 1 umol/kg; format: functional

Row | IC50 (5-lipoxygenase/FLAP [1]) [nM] | IC50 (5-lipoxygenase/FLAP [3]) [nM] | SMILES | ED50 (Rattus norvegicus [5]) [µmol/kg] | also measured
1 | 8 | 200 | CC(C)(C)Sc1c(CC(C)(C)C(=O)O)n(Cc2ccc(Cl)cc2)c2ccc(OCc3ccc4ccccc4n3)cc12 [QUIFLAPON] | 1.6 | –
2 | 0.34 | 11000 | CO/N=C/C(C)(C)Cc1c(SC(C)(C)C)c2cc(C(C)C)ccc2n1Cc1ccc(Cl)cc1 | – | ED50 (Rattus norvegicus [7]): inactive
3 | 4 | 40 | CC(C)(C)Sc1c(CC(C)(C)C(=O)O)n(Cc2ccc(Cl)cc2)c2ccc(OCc3cscn3)cc12 | 1.8 | –
4 | 17 | 110 | CC(C)(C)Sc1c(CC(C)(C)C(=O)O)n(Cc2ccc(Cl)cc2)c2ccc(OCc3cccc(Cl)n3)cc12 | 1.2 | –
5 | 12 | 600 | CC(C)(/C=N/OCC(=O)O)Cc1c(SC(C)(C)C)c2cc(OCc3ccc4ccccc4n3)ccc2n1Cc1ccc(Cl)cc1 | 0.24 | –
6 | – | 840 | CC(C)(C)Sc1c(CC(C)(C)C(=O)O)n(Cc2ccc(Cl)cc2)c2ccc(OCc3ccncc3)cc12 | – | inhibition at 0.1 µM (Homo sapiens [9]): 100%; ED50 (Rattus norvegicus [10]): inactive
7 | 0.15 | 1300 | CC(C)c1ccc2c(c1)c(SC(C)(C)C)c(CC(C)(C)NC(=O)N(C)O)n2Cc1ccc(Cl)cc1 | – | IC50 [6]: 7500 nM; inhibition in vivo at 60 µmol/kg (Rattus norvegicus [11]): 49%
8 | 13 | 600 | CC(C)(/C=N/OCC(=O)O)Cc1c(SC(C)(C)C)c2cc(OCc3ccccn3)ccc2n1Cc1ccc(Cl)cc1 | 0.12 | –
9 | 12 | 4420 | CC(C)(C)Sc1c(CC(C)(C)C(=O)O)n(Cc2ccc(Cl)cc2)c2ccc(OCc3ccc4ccccc4c3)cc12 | – | ED50 (Rattus norvegicus [10]): inactive
10 | 7 | – | CC(C)(C)Sc1c(CC(C)(C)C(=O)O)n(Cc2ccc(Cl)cc2)c2ccc(OCc3nccs3)cc12 | – | Inhibition (Homo sapiens [12]): 41%; inhibition in vivo at 1 µmol/kg (Rattus norvegicus [13]): 16%
11 | 10 | 360 | CC(C)(C)Sc1c(CC(C)(C)C(=O)O)n(Cc2ccc(Cl)cc2)c2ccc(OCc3nc4ccccc4s3)cc12 | – | inhibition in vivo at 1 µmol/kg (Rattus norvegicus [13]): 71%

Continued, molecule first:

Row | SMILES | IC50 (5-lipoxygenase/FLAP [1]) [nM] | IC50 (5-lipoxygenase/FLAP [3]) [nM] | ED50 (Rattus norvegicus [5]) [µmol/kg] | also measured
12 | CC(C)c1ccc2c(c1)c(SC(C)(C)C)c(CC(C)(C)/C=N/O)n2Cc1ccc(Cl)cc1 | 0.27 | 2200 | – | inhibition in vivo at 100 µmol/kg (Rattus norvegicus [2]): 46%
13 | CC(C)c1ccc2c(c1)c(SC(C)(C)C)c(CC(C)(C)C(=O)O)n2Cc1ccc(Cl)cc1 | 0.03 | 340 | 16 | IC50 [4]: Not Active
14 | CC(C)c1ccc2c(c1)c(SC(C)(C)C)c(CC(C)(C)CN(O)C(N)=O)n2Cc1ccc(Cl)cc1 | 0.17 | 1600 | 46 | IC50 [6]: 7500 nM
15 | CC(C)(C)Sc1c(CC(C)(C)C(=O)O)n(Cc2ccc(Cl)cc2)c2ccc(OCc3ccccn3)cc12 | – | 50 | 0.16 | –
16 | CC(C)(/C=N/OCC(=O)O)Cc1c(SC(C)(C)C)c2cc(OCc3cscn3)ccc2n1Cc1ccc(Cl)cc1 | 11 | 180 | 44 | –
17 | CC(C)c1ccc2c(c1)c(SC(C)(C)C)c(CC(C)(C)CNC(N)=O)n2Cc1ccc(Cl)cc1 | 0.18 | 970 | 11 | IC50 [8]: Not Active
18 | CC(C)c1ccc2c(c1)c(SC(C)(C)C)c(CC(C)(C)/C=N/OCC(=O)O)n2Cc1ccc(Cl)cc1 | 0.1 | 680 | 3 | –
19 | CC(C)(/C=N/OCC(=O)O)Cc1c(SC(C)(C)C)c2cc(OCc3cccc(Cl)n3)ccc2n1Cc1ccc(Cl)cc1 | 10 | 230 | 2.6 | –
20 | CC(C)(C)Sc1c(CC(C)(C)C(=O)O)n(Cc2ccc(Cl)cc2)c2ccc(OCc3cccnc3)cc12 | 17 | 1090 | – | inhibition in vivo at 100 µmol/kg (Rattus norvegicus [2]): 4%
